Laboratory results as given in patent publication US6645983B1, “Pharmaceutical compositions comprising 4-quinolones for treating cancers” (Laboratoire L. Lafon, priority 1999, dated 2003).
Read-outs that look alike come from different tables or passages of the source.

Assays:
[1] = system: SW1088; assay: MTT test, cytotoxic activity on non-clonogenic cell lines; type: cell-based; conditions: Homo sapiens, 10^−5 M, mean value
How it was run: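 Human astrocytoma SW1088 cells seeded, grown 24 h at 37° C, 5% CO2, then exposed to compounds at 10^−5 to 10^−10 M versus solvent control. Viability by MTT reduction: 3 h MTT incubation, formazan dissolved in DMSO and read by spectrophotometry.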

[2] = system: U-87MG; assay: as above; type: cell-based; conditions: Homo sapiens, 10^−5 M, mean value
How it was run: (§1)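 Human cancer lines seeded at 20 000–50 000 cells/ml, allowed 24 h to attach, then exposed to compounds at 10^−5 to 10^−10 M versus solvent control.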

[3] = system: A-427; assay: as above; type: cell-based; conditions: Homo sapiens, 10^−5 M, mean value
How it was run: as §1

[4] = system: A549; assay: as above; type: cell-based; conditions: Homo sapiens, 10^−5 M, mean value
How it was run: as §1

[5] = system: MCF7; assay: as above; type: cell-based; conditions: Homo sapiens, 10^−5 M, mean value
How it was run: as §1

[6] = system: T-47D; assay: as above; type: cell-based; conditions: Homo sapiens, T47D, 10^−5 M, mean value
How it was run: as §1

[7] = system: HCT-15; assay: as above; type: cell-based; conditions: Homo sapiens, mean value
How it was run: as §1

[8] = system: PC-3; assay: as above; type: cell-based; conditions: Homo sapiens, 10^−5 M, mean value
How it was run: as §1

[9] = system: LoVo; assay: as above; type: cell-based; conditions: Homo sapiens, 10^−5 M, mean value
How it was run: as §1

[10] = system: U-373MG; assay: as above; type: cell-based; conditions: Homo sapiens, U373 MG, 10^−5 M, mean value
How it was run: as §1

[11] = system: T24; assay: as above; type: cell-based; conditions: Homo sapiens, T-24, 10^−5 M, mean value
How it was run: (§2)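 Human bladder cancer lines were seeded at 20 000–50 000 cells/ml and, after 24 h, exposed to compounds at 10^−5 to 10^−10 M against a solvent control. Formazan was dissolved in DMSO and viability was read by spectrophotometric optical density.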

[12] = system: J82; assay: as above; type: cell-based; conditions: Homo sapiens, 10^−5 M, mean value
How it was run: as §2

[13] = Determination of the maximum tolerated dose (MTD); conditions: B6D2F1/Jico, mouse, in vivo, ip; single intraperitoneal administration, doses 2.5 to 160 mg/kg, survival over 14 days
How it was run: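 Mice were 4- to 6-week-old B6D2F1/Jico. They received a single intraperitoneal dose of 2.5 to 160 mg/kg, and survival and body weight were followed for 14 days. MTD is given in mg/kg and is capped at 160 mg/kg by default.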

[14] = 72 hours incubation, MTT, read-out: mean optical density, expressed as percentage relative to the mean optical density under the control condition (100%)
[15] = 72 hours of incubation, control condition = 100%, read-out: mean optical density as percentage of control, SW1088
[16] = U-87 MG, 72 hours of incubation, control condition = 100%, read-out: mean optical density as percentage of control, U-87MG
[17] = 72 hours of incubation, control condition = 100%, read-out: mean optical density as percentage of control, A-427
[18] = 72 hours of incubation, control condition = 100%, read-out: mean optical density as percentage of control, A549
[19] = 72 hours of incubation, control condition = 100%, read-out: mean optical density as percentage of control, MCF7
[20] = 72 hours of incubation, control condition = 100%, read-out: mean optical density as percentage of control, T-47D
[21] = 10^−5 M, 72 hours of incubation, control condition = 100%, read-out: mean optical density as percentage of control, HCT-16
[22] = 72 hours of incubation, control condition = 100%, read-out: mean optical density as percentage of control, PC-3
[23] = 72 hours of incubation, control condition = 100%, read-out: mean optical density as percentage of control, LoVo
[24] = 72 hours of incubation, control condition = 100%, read-out: mean optical density as percentage of control, U-373MG
[25] = 72 hours of incubation, control condition = 100%, read-out: mean optical density as percentage of control, T24
[26] = 72 hours of incubation, control condition = 100%, read-out: mean optical density as percentage of control, J82

## COc1ccc(-c2c[nH]c3cc(OC)cc(O)c3c2=O)cc1 [CRL8492, 5-Hydroxy-7-methoxy-3-(4-methoxyphenyl)-1,4-dihydro-4-quinolinone]
other
  melting point: 236 to 237 °C

## COc1ccc(-c2cn(CCc3nnn[nH]3)c3cc(OC)ccc3c2=O)cc1 [CRL8474, 7-Methoxy-3-(4-methoxyphenyl)-1-[2-(2H-1,2,3,4-tetrazol-5-yl)ethyl]-1,4-dihydro-4-quinolinone]
other
  melting point: 245 to 246 °C

## COc1ccc(CNc2cc(OC)cc3c2c(=O)c(-c2ccc(OC)cc2)cn3C)cc1 [CRL8521, 5-(4-Methoxybenzylamino)-7-methoxy-3-(4-methoxyphenyl)-1-methyl-1,4-dihydro-4-quinolinone]
other
  melting point: 144 to 145 °C

## CCN(CC)C(=O)CCn1cc(-c2ccc(OC)cc2)c(=O)c2ccc(OC)cc21 [CRL8525, N,N-Diethyl-3-[7-methoxy-3-(4-methoxyphenyl)-4-oxo-1,4-dihydro-1-quinolinyl]propanamide]
other
  melting point: 158 to 159 °C

## COc1ccc(-c2cn(C)c3c(OC)ccc(OS(=O)(=O)C(F)(F)F)c3c2=O)cc1 [CRL8511, 8-Methoxy-3-(4-methoxyphenyl)-1-methyl-5-trifluoro-methanesulfonate-1,4-dihydro-4-quinolinone]
other
  melting point: 179 to 180 °C

## COc1ccc2[nH]cc(-c3ccccc3)c(=O)c2c1 [CRL8488, 6-Methoxy-3-phenyl-1,4-dihydro-4-quinolinone]
other
  melting point: 355 to 356 °C

## COc1ccc(-c2cnc3cc(OC)cc(OC)c3c2OCCC2OCCO2)cc1 [CRL8500, 4-[2-(1,3-Dioxolan-2-yl)ethoxy]-5,7-dimethoxy-3-(4-methoxyphenyl)quinoline]
other
  melting point: 141 to 142 °C

## C=Cc1cc(OC)cc2c1c(=O)c(-c1ccc(OC)cc1)cn2C [CRL8494, 7-Methoxy-3-(4-methoxyphenyl)-1-methyl-5-vinyl-1,4-dihydro-4-quinolinone]
other
  melting point: 130 to 131 °C

## COc1ccc(-c2c[nH]c3ccc(OC)cc3c2=O)cc1 [CRL8490, 6-Methoxy-3-(4-methoxyphenyl)-1,4-dihydro-4-quinolinone]
other
  melting point: 335 to 336 °C

## CCOC(=O)COc1c(-c2ccc(OC)cc2)cnc2cc(OC)cc(OC)c12 [CRL8502, Ethyl 2-{[5,7-dimethoxy-3-(4-methoxyphenyl)-4-quinolinyl]oxy}acetate]
other
  melting point: 238 to 239 °C

## COc1ccc(-c2cn(CC#N)c3cc(OC)ccc3c2=O)cc1 [CRL8522, [7-Methoxy-3-(4-methoxyphenyl)-4-oxo-1,4-dihydro-1-quinolinyl]acetonitrile]
other
  melting point: 206 to 207 °C

## COc1ccc(-c2cnc3c(OC)ccc(OC)c3c2OCCO)cc1 [CRL8516, 2-{[5,8-Dimethoxy-3-(4-methoxyphenyl)-4-quinolyl]oxy}-1-ethanol]
other
  melting point: 124 to 125 °C

## COc1ccc(-c2c[nH]c3cccc(OC)c3c2=O)cc1 [CRL8491, 5-Methoxy-3-(4-methoxyphenyl)-1,4-dihydro-4-quinolinone]
other
  melting point: 215 to 216 °C

## C=CCNc1cc(OC)cc2c1c(=O)c(-c1ccc(OC)cc1)cn2C [CRL8520, 5-Allylamino-7-methoxy-3-(4-methoxyphenyl)-1-methyl-1,4-dihydro-4-quinolinone]
other
  melting point: 154 to 155 °C

## COc1ccc(-c2cn(CCO)c3c(OC)ccc(OC)c3c2=O)cc1 [CRL8515, 1-(2-Hydroxyethyl)-5,8-dimethoxy-3-(4-methoxyphenyl)-1,4-dihydro-4-quinolinone]
other
  melting point: 126 to 127 °C

## C=CCOc1c(-c2ccc(OC)cc2)cnc2cc(OC)cc(OC)c12 [CRL8496, 4-(Allyloxy)-5,7-dimethoxy-3-(4-methoxyphenyl)-quinoline]
other
  melting point: 169 to 170 °C

## COc1ccc(-c2cnc3c(OC)ccc(OC)c3c2OCCCCC#N)cc1 [CRL8519, {[5,8-Dimethoxy-3-(4-methoxyphenyl)-4-quinolyl]oxy}pentanenitrile]
other
  melting point: 126 to 127 °C

## COc1cc(OC)c2c(=O)c(-c3ccccc3)cn(C)c2c1 [CRL8489, 5,7-Dimethoxy-3-phenyl-1-methyl-1,4-dihydro-4-quinolinone]
other
  melting point: 179 to 180 °C

## COc1ccc(-c2cn(C)c3cc(OC)cc(OS(=O)(=O)C(F)(F)F)c3c2=O)cc1 [CRL8493, 7-Methoxy-3-(4-methoxyphenyl)-1-methyl-5-trifluoromethanesulfonate-1,4-dihydro-4-quinolinone]
other
  melting point: 184 to 185 °C

## COc1ccc(-c2cn(CCC#N)c3c(OC)ccc(OC)c3c2=O)cc1 [CRL8518, 3-[5,8-Dimethoxy-3-(4-methoxyphenyl)-4-oxo-1,4-dihydro-1-quinolinyl]propanenitrile]
other
  melting point: 79 to 80 °C

## CC(=O)Oc1ccc(-c2cn(C)c3cc(OC(C)=O)cc(OC(C)=O)c3c2=O)cc1 [CRL8513, 5,7-Diacetoxy-3-[4-(acetoxy)phenyl]-1-methyl-1,4-dihydro-4-quinolmone]
other
  melting point: 219 to 220 °C

## CCOC(=O)CCn1cc(-c2ccc(OC)cc2)c(=O)c2ccc(OC)cc21 [CRL8468, Ethyl 3-[7-methoxy-3-(4-methoxyphenyl)-4-oxo-1,4-dihydro-1-quinolinyl]propanoate]
[1]; [14]
  viability at 10 µM: 104%
[2]; U-87MG, 72 hours incubation, MTT, read-out: mean optical density, expressed as percentage relative to the mean optical density under the control condition (100%)
  viability at 10 µM: 92.7%
[3]; [14]
  viability at 10 µM: 69.7%
[4]; [14]
  viability at 10 µM: 93.6%
[5]; [14]
  viability at 10 µM: 79.1%
[6]; T-47D, 72 hours incubation, MTT, read-out: mean optical density, expressed as percentage relative to the mean optical density under the control condition (100%)
  viability at 10 µM: 92.2%
[7]; HCT-16, 10^−5 M, 72 hours incubation, MTT, read-out: mean optical density, expressed as percentage relative to the mean optical density under the control condition (100%)
  viability at 10 µM: 111%
[8]; [14]
  viability at 10 µM: 95%
[9]; [14]
  viability at 10 µM: 97.2%
[10]; U-373MG, 72 hours incubation, MTT, read-out: mean optical density, expressed as percentage relative to the mean optical density under the control condition (100%)
  viability at 10 µM: 107%
[11]; T24, 72 hours incubation, MTT, read-out: mean optical density, expressed as percentage relative to the mean optical density under the control condition (100%)
  viability at 10 µM: 98.5%
[12]; [14]
  viability at 10 µM: 91.9%
[13]
  MTD at 14 day: > 160 mg/kg

## CCN(CC)C(=O)Cn1cc(-c2ccc(OC)cc2)c(=O)c2c(OC)ccc(OC)c21 [CRL8380, N,N-Diethyl-2-[5,8-dimethoxy-3-(4-methoxyphenyl)-4-oxo-1,4-dihydro-1-quinolinyl]acetamide]
[1]; [15]
  viability at 10 µM: 100%
[2]; [16]
  viability at 10 µM: 87.5%
[3]; [17]
  viability at 10 µM: 89.3%
[4]; [18]
  viability at 10 µM: 95%
[5]; [19]
  viability at 10 µM: 102%
[6]; [20]
  viability at 10 µM: 88.1%
[7]; [21]
  viability at 10 µM: 103%
[8]; [22]
  viability at 10 µM: 102%
[9]; [23]
  viability at 10 µM: 108%
[10]; [24]
  viability at 10 µM: 101%
[11]; [25]
  viability at 10 µM: 94.9%
[12]; [26]
  viability at 10 µM: 98.9%
[13]
  MTD at 14 day: > 160 mg/kg

## COc1ccc(-c2cn(CCCC#N)c3cc(OC)cc(OC)c3c2=O)cc1 [CRL8420, 4-[5,7-Dimethoxy-3-(4-methoxyphenyl)-4-oxo-1,4-dihydro-1-quinolinyl]butanenitrile]
[1]; [15]
  viability at 10 µM: 117%
[2]; [16]
  viability at 10 µM: 92.9%
[3]; [17]
  viability at 10 µM: 102%
[4]; [18]
  viability at 10 µM: 94.5%
[5]; [19]
  viability at 10 µM: 103%
[6]; [20]
  viability at 10 µM: 104%
[7]; [21]
  viability at 10 µM: 109%
[8]; [22]
  viability at 10 µM: 86%
[9]; [23]
  viability at 10 µM: 81.2%
[10]; [24]
  viability at 10 µM: 96.6%
[11]; [25]
  viability at 10 µM: 111%
[12]; [26]
  viability at 10 µM: 92.3%
[13]
  MTD at 14 day: > 160 mg/kg
